The text below walks through data of US6362369B1, “Phthalic acid diamide derivatives fluorine-containing aniline compounds as starting material, agricultural and horticultural insecticides, and a method for application of the insecticides” (Nihon Nohyaku Co., Ltd., priority 1997, dated 2002).

Molecules are shown by their SMILES.

Common to all, as to type: in vivo
Experiment [1] concerns diamondback moth (Plutella xylostella). Briefly: Insecticidal effect on diamondback moth (Test Example 1). To be noted: for Insecticidal effect, Test Example 1 / Insecticidal effect (Test Example 1), judged from mortality: diamondback moth; for Insecticidal effect on diamondback moth (Test Example 1), judged grade: mortality judged according to the criterion shown in Test Example 1; for Insecticidal effect (Test Example 1), judged from mortality: judged by the criterion of Test Example 1. In outline: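 Oviposition by adults on Chinese cabbage seedling; immersion; air-dry; 25° C room. Count of hatched larvae at day 6 post-immersion → mortality → effect graded by criterion. Triplicate, 10 insects/group.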

Experiment [2] concerns common cutworm (Spodoptera Litura). Briefly: Insecticidal effect on common cutworm (Test Example 2). The following applies: 500 ppm, 25° C.; for Insecticidal effect, Test Example 2: cabbage leaf immersed; for Insecticidal effect, Test Example 2 / Insecticidal effect on common cutworm (Test Example 2), judged grade: eight days after inoculation; for Insecticidal effect on common cutworm (Test Example 2), judged grade / Insecticidal effect (Test Example 2), judged from mortality: cabbage leaf dip; for Insecticidal effect on common cutworm (Test Example 2), judged grade: second-instar larvae; for Insecticidal effect (Test Example 2), judged from mortality: 8 days after inoculation. In a few lines:
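Second-instar larvae placed in 9 cm Petri dishes with air-dried treated material, held at 25 °C. Dead and live insects counted 8 days after inoculation; mortality calculated and scored against a set criterion. Triplicate groups of 10 insects.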

Experiment [3] deals with rice leafroller (Cnaphalocrocis medinalis). Briefly: Insecticidal effect on rice leafroller (Test Example 3). The following applies: 500 ppm, 25° C., humidity 70%; for Insecticidal effect, Test Example 3: rice lamina immersed; for Insecticidal effect, Test Example 3 / Insecticidal effect on rice leafroller (Test Example 3), judged grade: four days after inoculation; for Insecticidal effect on rice leafroller (Test Example 3), judged grade / Insecticidal effect (Test Example 3), judged from mortality: rice lamina dip; for Insecticidal effect on rice leafroller (Test Example 3), judged grade: third-instar larvae; for Insecticidal effect (Test Example 3), judged from mortality: 4 days after inoculation. In a few lines: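 Insecticidal effect is judged by a predefined criterion from dead/alive counts four days after infesting air-dried lamina with third-instar larvae, kept on moistened filter paper at 25° C, 70% humidity.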

Where [4] appears, read: mortality judged by criterion of Test Example 1.
[5] abbreviates: common cutworm second-instar larvae.
Setting [6] is: rice leafroller third-instar larvae.
[7] abbreviates: judged by the mortality criterion of Test Example 1.
The mark [8] stands for this setting: second-instar larvae of common cutworm.
Where [9] appears, read: third-instar larvae of rice leafroller.

Consider `CCCN(C)C(=O)c1c(I)cccc1C(=O)Nc1ccc(C(F)(F)C(F)(F)F)cc1C` [compound 1069], for which, in experiment [1] (setting [4]), the “Insecticidal effect, Test Example 1” value is reported as “A (100)”. Moreover, the “Insecticidal effect, Test Example 2” value in experiment [2] (setting [5]) is given as “A (100)”. Further, the “Insecticidal effect, Test Example 3” value in experiment [3] (setting [6]) is recorded as “A (100)”.

Regarding `Cc1cc(C(F)(F)C(F)(F)F)ccc1NC(=O)c1cccc(C)c1C(=O)NC(C)(C)C` [compound 955], the “Insecticidal effect, Test Example 1” value in experiment [1] (setting [4]) is on record as “A (100)”. For the same compound, the “Insecticidal effect, Test Example 2” value in experiment [2] (setting [5]) was “A (100)”. In experiment [3] (setting [6]), the “Insecticidal effect, Test Example 3” value is recorded as “A (100)”.

For `CC(C)NC(=O)c1c(I)cccc1C(=O)Nc1ccc(OC(F)(F)F)cc1Br` [compound 406], the “Insecticidal effect, Test Example 1” value in experiment [1] (setting [7]) is given as “A (100)”. For the same compound, the “Insecticidal effect, Test Example 2” value in experiment [2] (setting [8]) is given as “A (100)”. Moreover, the “Insecticidal effect, Test Example 3” value in experiment [3] (setting [9]) is “A (100)”.

In the case of `COCC(C)NC(=O)c1c(C(=O)Nc2ccc(OC(F)F)cc2C)cccc1[N+](=O)[O-]` (stereo not drawn) [compound 874], the “Insecticidal effect on diamondback moth (Test Example 1), judged grade” value (“Insecticidal effect on diamondback moth” for short) in experiment [1] is “A (100)”. Further, the “Insecticidal effect on common cutworm (Test Example 2), judged grade” value (from here on “Insecticidal effect on common cutworm”) in experiment [2] is given as “C (89-80)”. In addition, in experiment [3], the “Insecticidal effect on rice leafroller (Test Example 3), judged grade” value (“Insecticidal effect on rice leafroller” below) is “A (100)”.

Take `Cc1ccc(F)cc1NC(=O)c1cccc([N+](=O)[O-])c1C(=O)NCCF` [compound 862]: the “Insecticidal effect on diamondback moth” value in experiment [1] was “A (100)”. In addition, the “Insecticidal effect on common cutworm” value in experiment [2] is on record as “D (79-50)”. Also, the “Insecticidal effect on rice leafroller” value in experiment [3] is recorded as “D (79-50)”.

For the compound `Cc1cc(SC(F)(F)C(F)(F)F)ccc1NC(=O)c1c(Cl)cccc1C(=O)NC(C)C` [compound 908], the “Insecticidal effect on diamondback moth” value in experiment [1] was “A (100)”. In experiment [2], the “Insecticidal effect on common cutworm” value was “D (79-50)”. In addition, the “Insecticidal effect on rice leafroller” value in experiment [3] was “A (100)”.

With `Cc1cc(Br)ccc1NC(=O)c1ccccc1C(=O)NC(C)C` [compound 52], in experiment [1] (setting [7]), the “Insecticidal effect, Test Example 1” value is “A (100)”. The “Insecticidal effect, Test Example 2” value in experiment [2] (setting [8]) is listed as “A (100)”. The “Insecticidal effect, Test Example 3” value in experiment [3] (setting [9]) is listed as “A (100)”.

In the case of `CC(C)NC(=O)c1cccc(I)c1C(=O)Nc1ccc(C(F)(F)C(F)(F)C(F)(F)F)cc1Cl` [compound 468], in experiment [1], the “Insecticidal effect on diamondback moth” value was “A (100)”. In addition, the “Insecticidal effect on common cutworm” value in experiment [2] is on record as “A (100)”. Also, the “Insecticidal effect on rice leafroller” value in experiment [3] is on record as “B (99-90)”.

`CC(C)NC(=O)c1c(I)cccc1C(=O)Nc1ccc(C(F)(F)C(F)(F)F)cc1Cl` [compound 1386]: the “Insecticidal effect, Test Example 1” value in experiment [1] (setting [4]) was “A (100)”. The “Insecticidal effect, Test Example 2” value in experiment [2] (setting [5]) was “A (100)”. Moreover, the “Insecticidal effect, Test Example 3” value in experiment [3] (setting [6]) was “A (100)”.

As for `Cc1cc([S+]([O-])C(F)(F)F)ccc1NC(=O)c1cccc(I)c1C(=O)NC(C)(C)C` (stereo not drawn) [compound 1169], in experiment [1] (setting [4]), the “Insecticidal effect, Test Example 1” value is given as “A (100)”. The “Insecticidal effect, Test Example 2” value in experiment [2] (setting [5]) is recorded as “A (100)”. Also, the “Insecticidal effect, Test Example 3” value in experiment [3] (setting [6]) was “A (100)”.

With `CC(C)NC(=O)c1c(I)cccc1C(=O)Nc1ccc(C(O)(C(F)(F)F)C(F)(F)F)cc1` [compound 1004], the “Insecticidal effect, Test Example 1” value in experiment [1] (setting [4]) is “A (100)”. Also, the “Insecticidal effect, Test Example 2” value in experiment [2] (setting [5]) is “A (100)”. Also, in experiment [3] (setting [6]), the “Insecticidal effect, Test Example 3” value is listed as “A (100)”.

Regarding `CC(C)NC(=O)c1c(I)cccc1C(=O)Nc1ccc(C(F)(F)C(F)(F)C(F)(F)F)cc1F` [compound 1474], the “Insecticidal effect (Test Example 1), judged from mortality” value in experiment [1] is recorded as “A (100)”. Also, in experiment [2] (setting [8]), the “Insecticidal effect (Test Example 2), judged from mortality” value was “A (100)”. In addition, the “Insecticidal effect (Test Example 3), judged from mortality” value in experiment [3] (setting [9]) is on record as “A (100)”.

Regarding `CC(C)NC(=O)c1c(I)cccc1C(=O)Nc1ccc(OC(F)F)cc1C(F)(F)F` [compound 409], the “Insecticidal effect, Test Example 1” value in experiment [1] (setting [7]) is “A (100)”. Also, the “Insecticidal effect, Test Example 2” value in experiment [2] (setting [8]) is “A (100)”. For the same compound, the “Insecticidal effect, Test Example 3” value in experiment [3] (setting [9]) is on record as “A (100)”.

Regarding `CC(C)NC(=O)c1c(F)cccc1C(=O)Nc1ccc(C(F)(F)C(F)(F)F)cc1Cl` [compound 1516], in experiment [1], the “Insecticidal effect (Test Example 1), judged from mortality” value is “A (100)”. Further, the “Insecticidal effect (Test Example 2), judged from mortality” value in experiment [2] (setting [8]) is “A (100)”. Besides, the “Insecticidal effect (Test Example 3), judged from mortality” value in experiment [3] (setting [9]) is reported as “A (100)”.

For `Cc1cc(OCC(F)(F)C(F)F)ccc1NC(=O)c1cccc(I)c1C(=O)NC(C)C` [compound 388], in experiment [1] (setting [7]), the “Insecticidal effect, Test Example 1” value is recorded as “A (100)”. In addition, the “Insecticidal effect, Test Example 2” value in experiment [2] (setting [8]) is “A (100)”. Further, the “Insecticidal effect, Test Example 3” value in experiment [3] (setting [9]) is “B (99-90)”.

With `Cc1cc(C(F)(F)C(F)(F)C(F)(F)C(F)(F)F)ccc1NC(=O)c1c(Br)cccc1C(=O)NC(C)C` [compound 318], the “Insecticidal effect, Test Example 1” value in experiment [1] (setting [7]) is “A (100)”. The “Insecticidal effect, Test Example 2” value in experiment [2] (setting [8]) is reported as “B (99-90)”. In addition, the “Insecticidal effect, Test Example 3” value in experiment [3] (setting [9]) is on record as “A (100)”.

Regarding `Cc1cc(C#N)ccc1NC(=O)c1cccc(I)c1C(=O)NC(C)C` [compound 1389], the “Insecticidal effect, Test Example 1” value in experiment [1] (setting [4]) was “A (100)”. The “Insecticidal effect, Test Example 2” value in experiment [2] (setting [5]) was “A (100)”. Moreover, the “Insecticidal effect, Test Example 3” value in experiment [3] (setting [6]) is reported as “A (100)”.

Take `CC(C)NC(=O)c1c(Cl)cccc1C(=O)Nc1cccc([S+]([O-])C(F)(F)F)c1` (stereo not drawn) [compound 100]: the “Insecticidal effect, Test Example 1” value in experiment [1] (setting [7]) is reported as “A (100)”. The “Insecticidal effect, Test Example 2” value in experiment [2] (setting [8]) was “A (100)”. The “Insecticidal effect, Test Example 3” value in experiment [3] (setting [9]) is reported as “A (100)”.

Take `CC(C)NC(=O)c1cccc(I)c1C(=O)Nc1ccc(SC(F)F)cc1` [compound 421]: in experiment [1] (setting [7]), the “Insecticidal effect, Test Example 1” value is reported as “A (100)”. The “Insecticidal effect, Test Example 2” value in experiment [2] (setting [8]) is given as “B (99-90)”. Moreover, in experiment [3] (setting [9]), the “Insecticidal effect, Test Example 3” value is reported as “A (100)”.

In the case of `Cc1c(NC(=O)c2cccc(Br)c2C(=O)NC(C)C)ccc(OC(F)F)c1Cl` [compound 294], in experiment [1] (setting [7]), the “Insecticidal effect, Test Example 1” value was “A (100)”. The “Insecticidal effect, Test Example 2” value in experiment [2] (setting [8]) was “A (100)”. In experiment [3] (setting [9]), the “Insecticidal effect, Test Example 3” value is recorded as “A (100)”.

`Cc1cc(OC(F)(F)F)ccc1NC(=O)c1cccc(Cl)c1C(=O)NC(C)(C)C` [compound 944]: in experiment [1] (setting [4]), the “Insecticidal effect, Test Example 1” value is given as “A (100)”. The “Insecticidal effect, Test Example 2” value in experiment [2] (setting [5]) is given as “A (100)”. Moreover, the “Insecticidal effect, Test Example 3” value in experiment [3] (setting [6]) is listed as “A (100)”.

As to `Cc1cc(C(F)(F)C(F)(F)F)ccc1NC(=O)c1ccc(Cl)c(Cl)c1C(=O)NC(C)C` [compound 1222, 3,4-dichloro-N^1-(4-pentafluoroethyl-2-methylphenyl)-N^2-isopropylphthalic acid diamide], in experiment [1] (setting [4]), the “Insecticidal effect, Test Example 1” value was “A (100)”. Moreover, in experiment [2] (setting [5]), the “Insecticidal effect, Test Example 2” value is listed as “A (100)”. The “Insecticidal effect, Test Example 3” value in experiment [3] (setting [6]) is given as “A (100)”.

For the compound `Cc1ccc(F)cc1NC(=O)c1cccc(F)c1C(=O)NC(C)C` [compound 493], the “Insecticidal effect on diamondback moth” value in experiment [1] is “A (100)”. The “Insecticidal effect on common cutworm” value in experiment [2] was “A (100)”. The “Insecticidal effect on rice leafroller” value in experiment [3] is on record as “A (100)”.

With `CC(C)NC(=O)c1cccc(Cl)c1C(=O)Nc1ccc(C(F)(C(F)(F)F)C(F)(F)F)cc1` [compound 198], the “Insecticidal effect, Test Example 1” value in experiment [1] (setting [7]) is reported as “A (100)”. Besides, the “Insecticidal effect, Test Example 2” value in experiment [2] (setting [8]) is “C (89-80)”. In addition, the “Insecticidal effect, Test Example 3” value in experiment [3] (setting [9]) is on record as “A (100)”.

`CC(C)NC(=O)c1c(Cl)cccc1C(=O)Nc1ccc(OC(F)(F)F)cc1Cl` [compound 135]: the “Insecticidal effect, Test Example 1” value in experiment [1] (setting [7]) is reported as “A (100)”. Also, in experiment [2] (setting [8]), the “Insecticidal effect, Test Example 2” value is listed as “A (100)”. For the same compound, the “Insecticidal effect, Test Example 3” value in experiment [3] (setting [9]) is recorded as “A (100)”.
